# Measured values published in patent EP4577243B1, “STABLE LIPID OR LIPIDOID NANOPARTICLE SUSPENSIONS” (Ethris GmbH, priority 2022, dated 2024).
# Assay: pKa of ionizable lipids (Tables 1 to 3)
# Assay type: physicochemical
# Conditions: Table 2
compound,measurement,value
CCCCCCCC(=O)N(CCCN(C)C)C(CCCCCCCCC(=O)OC(CCCCCC)CCCCCC)CCCCCCCCC(=O)OC(CCCCCC)CCCCCC [II-10],pKa,6.16
